Data on one compound can be found in PubChem BioAssay AID1794825.

This test has as its target Sodium- and chloride-dependent glycine transporter 2 (Homo sapiens) (UniProt Q9Y345). Kind of test: PubChem AID 1794825. Conditions: HEK-293 SLC6A5 OE, FLIPR membrane potential dye.

Sequence of Sodium- and chloride-dependent glycine transporter 2 (Homo sapiens) (Q9Y345 whole entry, looked up): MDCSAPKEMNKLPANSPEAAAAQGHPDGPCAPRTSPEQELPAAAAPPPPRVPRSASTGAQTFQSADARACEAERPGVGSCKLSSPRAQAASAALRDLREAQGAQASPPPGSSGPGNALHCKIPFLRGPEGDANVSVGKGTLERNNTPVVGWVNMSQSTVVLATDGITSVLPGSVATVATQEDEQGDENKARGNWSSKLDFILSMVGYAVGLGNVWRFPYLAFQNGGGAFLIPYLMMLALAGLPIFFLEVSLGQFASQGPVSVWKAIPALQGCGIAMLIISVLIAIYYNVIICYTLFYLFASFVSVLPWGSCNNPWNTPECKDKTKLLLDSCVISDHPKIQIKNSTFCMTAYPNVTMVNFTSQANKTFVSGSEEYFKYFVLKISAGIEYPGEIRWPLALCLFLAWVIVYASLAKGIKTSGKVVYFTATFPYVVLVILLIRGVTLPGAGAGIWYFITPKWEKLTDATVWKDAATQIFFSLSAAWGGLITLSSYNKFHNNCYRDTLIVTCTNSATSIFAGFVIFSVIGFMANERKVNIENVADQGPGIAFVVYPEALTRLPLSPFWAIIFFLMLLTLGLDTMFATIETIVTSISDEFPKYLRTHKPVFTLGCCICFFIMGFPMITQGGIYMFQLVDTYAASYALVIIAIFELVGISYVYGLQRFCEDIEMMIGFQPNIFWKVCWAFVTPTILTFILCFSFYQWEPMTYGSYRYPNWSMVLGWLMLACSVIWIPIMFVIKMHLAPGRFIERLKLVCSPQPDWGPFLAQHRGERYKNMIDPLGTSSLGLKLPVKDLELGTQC

With `NCC(=O)O`, the 50% effective concentration (EC50) – broadly, the concentration that produces a half-maximal response – was 128 µM.
